In patent US20240299559A1, “COMPOUNDS THAT MEDIATE PROTEIN DEGRADATION AND METHODS OF USE THEREOF” (Monte Rosa Therapeutics, Inc., priority 2021, published 2024):

Columns and labels:
[1] = target: T1, CDK2 (Homo sapiens, UniProt P24941); assay: CDK2 HiBiT assay (degradation, Dmax); assay type: cell-based; settings: HEK293 clonal lines with CRISPR KI HiBiT tag on CDK2, stably expressing LgBiT; 24 hours incubation
T1 construct: HEK293 clonal lines with CRISPR KI HiBiT tag on CDK2 proteins; host or cells: HEK293 clonal line with CRISPR knock-in HiBiT on CDK2, stably expressing LgBiT
Method: HEK293 clonal lines with CRISPR KI HiBiT tag on CDK2 proteins and stably expressing LgBiT protein were obtained from Promega (Madison, WI). Cells were plated at 5000 cells per well using Multiflo (BioTek) in 384-well white solid bottom plates (Corning, 3570BC) in 25 ul volume in DMEM media (DMEM, high glucose, HEPES, no phenol red (ThermoFisher Scientific, 21063029)) containing 10% FBS (Corning, 35-075-CV), 1% Penicillin/Streptomycin (ThermoFisher Scientific, 15140-122). Cells were incubated for 16 hours at 37° C., 5% CO2. 75 nL of a compound at 30 μM were dosed into the plate using an Echo® 650 liquid handler (Labcyte). Cells were incubated at 37° C., 5% CO2 for 24 hours. 5 ul of HiBiT Lysis Reagent (Promega, N3030) is added using Combi Multidrop (ThermoFisher Scientific), plates are incubated for 15′ at 37° C., 5% CO2 and then signal was read on a Pherastar FSX using “LUM plus” optic module.
Analysis was performed in Scinamic (Scinamic, Cambridge, MA). Luminescence response (R) was calculated by the formula: response=100*(S−N)/(P−N) where S is the signal of the well, N and P the mean negative and positive control values respectively of the same plate. The luminescence response was then fitted in Scinamic using a 3-parameter agonist logistic fit (hillslope=1, EC50>0, top/bottom unconstrained).

[2] = target: CRBN-DDB1 (Homo sapiens, UniProt Q96SW2); assay: Compound binding to CRBN by HTRF assay; settings: CRBN-DDB1 2.5 nM, Cy5-Thalidomide 100 nM probe; Ki from geometric mean of IC50 by Cheng-Prustoff transformation
Method: Compound activity was monitored in a Homogenous Time-Resolved Fluorescence (HTRF) assay using 1-[5-({2-[2-(2-{[2-(2,6-dioxopiperidin-3-yl)-1,3-dioxo-2,3-dihydro-1H-isoindol-4-yl]oxy}acetamido)ethoxy]ethyl}carbamoyl)pentyl]-3,3-dimethyl-2-[(1E,3E)-5-[(2E)-1,3,3-trimethyl-5-sulfo-2,3-dihydro-1H-indol-2-ylidene]penta-1,3-dien-1-yl]-3H-indol-1-ium-5-sulfonate as a fluorescent probe. Biochemical assays were conducted in Greiner white 384 well HiBase plates (Cat. No 784075-25) in 10 μL total volume. A one pot detection solution of CRBN-DDB1 (2.5 nM), Anti-His Terbium Cryptate Gold (1×, PerkinElmer Cat. #: 61HI2TLB), and Cy5-Thalidomide (100 nM, Tenova Cat.: T52461) was prepared in 20 mM HEPES, 20 mM NaCl, 0.2 mM TCEP, 0.2 mM EDTA, and 0.005% Tween20 was dispensed to each assay plate. Compounds were stored in dry, ambient temperatures at 10 mM. A 10-point, 1:3 dilution series was prepared from 10 mM stock concentrations in Echo-compatible LDV plates. 10 nL of each compound dilution series was dispensed into assays wells using an Echo 650 (Labcyte inc. USA). 10 nL of 10 mM Lenalidomide was transferred into the active-control wells for the assay and 10 nL of DMSO was transferred into the neutral-control wells. The assay was then allowed to incubate for 30 min at ambient temperature after transferring compound. Plate measurements were taken on a Pherastar FSX (BMG Labtech, Germany) using the HTRF Red filter (Ex. 337 nm, em1:620 nm, em2:665 nm) (Flashes: 50, Integration time: 60-400 us, Z-height: 10 mm, Ratio-multipler: 10,000). The HTRF signal was then subsequently normalized to the neutral and active controls. Analysis and IC50 values were derived using KNIME analytics (KNIME Zurich) transformation and fitting within Collaborative Drug Discovery (Collaborative Drug Discovery USA). Ki was derived from the geometric mean of the IC50 values using the Cheng-Prustoff transformation.

CRBN-DDB1, sequence (Q96SW2 whole entry): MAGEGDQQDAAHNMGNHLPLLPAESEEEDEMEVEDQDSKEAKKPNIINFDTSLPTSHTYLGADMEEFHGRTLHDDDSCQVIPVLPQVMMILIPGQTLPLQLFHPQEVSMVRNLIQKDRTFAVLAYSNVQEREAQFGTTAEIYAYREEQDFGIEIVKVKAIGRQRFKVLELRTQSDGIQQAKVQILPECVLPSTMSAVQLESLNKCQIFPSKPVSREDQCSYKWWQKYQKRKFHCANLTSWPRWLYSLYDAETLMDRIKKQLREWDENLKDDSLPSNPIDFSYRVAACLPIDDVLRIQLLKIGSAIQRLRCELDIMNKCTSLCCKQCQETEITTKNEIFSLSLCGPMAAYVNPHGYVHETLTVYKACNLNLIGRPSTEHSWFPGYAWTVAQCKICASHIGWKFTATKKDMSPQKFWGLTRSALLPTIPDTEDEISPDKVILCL
CRBN-DDB1, sequence (Q16531 whole entry partner): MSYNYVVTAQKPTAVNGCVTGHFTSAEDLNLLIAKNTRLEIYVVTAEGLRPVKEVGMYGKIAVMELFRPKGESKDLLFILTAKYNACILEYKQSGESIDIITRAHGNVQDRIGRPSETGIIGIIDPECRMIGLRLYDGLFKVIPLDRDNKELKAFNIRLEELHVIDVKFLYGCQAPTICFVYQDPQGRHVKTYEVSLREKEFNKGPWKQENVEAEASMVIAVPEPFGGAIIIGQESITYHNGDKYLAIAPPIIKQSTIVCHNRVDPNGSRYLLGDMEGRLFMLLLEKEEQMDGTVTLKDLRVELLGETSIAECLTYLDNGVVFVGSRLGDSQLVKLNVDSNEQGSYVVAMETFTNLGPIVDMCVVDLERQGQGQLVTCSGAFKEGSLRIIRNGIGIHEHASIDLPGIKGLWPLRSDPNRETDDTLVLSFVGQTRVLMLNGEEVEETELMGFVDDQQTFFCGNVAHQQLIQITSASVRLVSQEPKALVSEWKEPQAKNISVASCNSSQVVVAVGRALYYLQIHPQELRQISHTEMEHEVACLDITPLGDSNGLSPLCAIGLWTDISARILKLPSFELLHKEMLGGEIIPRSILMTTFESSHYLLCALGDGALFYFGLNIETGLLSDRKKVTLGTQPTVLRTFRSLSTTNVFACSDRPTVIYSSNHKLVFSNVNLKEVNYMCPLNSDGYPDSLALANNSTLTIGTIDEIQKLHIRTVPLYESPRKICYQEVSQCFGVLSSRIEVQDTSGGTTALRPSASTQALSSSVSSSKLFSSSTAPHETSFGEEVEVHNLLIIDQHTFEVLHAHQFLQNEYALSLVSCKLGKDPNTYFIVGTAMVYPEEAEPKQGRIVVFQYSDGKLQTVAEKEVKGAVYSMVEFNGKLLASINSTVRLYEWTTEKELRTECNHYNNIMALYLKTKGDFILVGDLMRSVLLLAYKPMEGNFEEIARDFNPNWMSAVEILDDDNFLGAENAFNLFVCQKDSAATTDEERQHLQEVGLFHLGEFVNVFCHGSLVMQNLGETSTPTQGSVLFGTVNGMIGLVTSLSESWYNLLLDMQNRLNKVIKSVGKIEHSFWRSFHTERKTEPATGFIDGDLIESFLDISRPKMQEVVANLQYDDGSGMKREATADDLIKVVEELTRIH

SMILES | Dmax [1] [%] | Ki [2] [nM]
O=C1CCC(N2Cc3ccc(CNC(=O)OCc4ccc(CN5CCOCC5)cc4)cc3C2=O)C(=O)N1 (stereo not shown) [Compound 55, {4-[(morpholin-4-yl)methyl]phenyl}methyl N-{[2-(2,6-dioxopiperidin-3-yl)-3-oxo-2,3-dihydro-1H-isoindol-5-yl]methyl}carbamate] | ≤ 10 | ≤ 100
CC(C)(C)c1cccc(COC(=O)NCc2ccc3c(c2)C(=O)N(C2CCC(=O)NC2=O)C3)c1 (stereo not shown) [Compound 45, (3-tert-butylphenyl)methyl N-{[2-(2,6-dioxopiperidin-3-yl)-3-oxo-2,3-dihydro-1H-isoindol-5-yl]methyl}carbamate] | 10 to 50 | ≤ 100
O=C1CCC(N2Cc3ccc(CNC(=O)OCCCc4ccccc4)cc3C2=O)C(=O)N1 (stereo not shown) [Compound 23, 3-phenylpropyl N-{[2-(2,6-dioxopiperidin-3-yl)-3-oxo-2,3-dihydro-1H-isoindol-5-yl]methyl}carbamate] | 10 to 50 | 100 to 1000
O=C1CCC(N2Cc3ccc(CNC(=O)OCc4cccc(-c5cccc(F)c5)c4)cc3C2=O)C(=O)N1 (stereo not shown) [Compound 10, (3′-fluoro-[1,1′-biphenyl]-3-yl)methyl ((2-(2,6-dioxopiperidin-3-yl)-3-oxoisoindolin-5-yl)methyl)carbamate] | 50 to 80 | 100 to 1000
O=C1CCC(N2Cc3ccc(CNC(=O)OCc4ccc(C(F)(F)F)nc4)cc3C2=O)C(=O)N1 (stereo not shown) [Compound 66, [6-(trifluoromethyl)pyridin-3-yl]methyl N-{[2-(2,6-dioxopiperidin-3-yl)-3-oxo-2,3-dihydro-1H-isoindol-5-yl]methyl}carbamate] | 10 to 50 | ≤ 100
O=C1CCC(N2Cc3ccc(CNC(=O)OCc4ccccc4)cc3C2=O)C(=O)N1 (stereo not shown) [Compound 20, benzyl ((2-(2,6-dioxopiperidin-3-yl)-3-oxoisoindolin-5-yl)methyl)carbamate] | 10 to 50 | 100 to 1000
Cc1ccc(COC(=O)NCc2ccc3c(c2)C(=O)N(C2CCC(=O)NC2=O)C3)c(C)c1 (stereo not shown) [Compound 30, (2,4-dimethylphenyl)methyl N-{[2-(2,6-dioxopiperidin-3-yl)-3-oxo-2,3-dihydro-1H-isoindol-5-yl]methyl}carbamate] | 10 to 50 | 100 to 1000
O=C(CCc1cccc(-c2ccc(F)cc2)c1)NCc1ccc2c(c1)C(=O)N(C1CCC(=O)NC1=O)C2 (stereo not shown) [Compound 21, N-((2-(2,6-dioxopiperidin-3-yl)-3-oxoisoindolin-5-yl)methyl)-3-(4′-fluoro-[1,1′-biphenyl]-3-yl)propanamide] | ≤ 10 | ≤ 100
O=C1CCC(N2Cc3ccc(CNC(=O)OCc4ccc(OCC(F)(F)F)nc4)cc3C2=O)C(=O)N1 (stereo not shown) [Compound 61, [6-(2,2,2-trifluoroethoxy)pyridin-3-yl]methyl N-{[2-(2,6-dioxopiperidin-3-yl)-3-oxo-2,3-dihydro-1H-isoindol-5-yl]methyl}carbamate] | 10 to 50 | ≤ 100
O=C1CCC(N2Cc3ccc(CNC(=O)OCc4ccc(C5CC5)cc4)cc3C2=O)C(=O)N1 (stereo not shown) [Compound 64, (4-cyclopropylphenyl)methyl N-{[2-(2,6-dioxopiperidin-3-yl)-3-oxo-2,3-dihydro-1H-isoindol-5-yl]methyl}carbamate] | 10 to 50 | 100 to 1000
O=C1CCC(N2Cc3ccc(CNC(=O)OCc4ccc(OC(F)(F)F)cc4)cc3C2=O)C(=O)N1 (stereo not shown) [Compound 69, 4-(trifluoromethoxy)benzyl ((2-(2,6-dioxopiperidin-3-yl)-3-oxoisoindolin-5-yl)methyl)carbamate] | 10 to 50 | 100 to 1000
O=C1CCC(N2Cc3ccc(CNC(=O)OCc4cccc(SC(F)(F)F)c4)cc3C2=O)C(=O)N1 (stereo not shown) [Compound 56, {3-[(trifluoromethyl)sulfanyl]phenyl}methyl N-{[2-(2,6-dioxopiperidin-3-yl)-3-oxo-2,3-dihydro-1H-isoindol-5-yl]methyl}carbamate] | 10 to 50 | ≤ 100
O=C1CCC(N2Cc3ccc(COC(=O)NCc4ccc(OC5CCOCC5)nc4)cc3C2=O)C(=O)N1 (stereo not shown) [Compound 2, (2-(2,6-dioxopiperidin-3-yl)-3-oxoisoindolin-5-yl)methyl((6-((tetrahydro-2H-pyran-4-yl)oxy)pyridin-3-yl)methyl)carbamate] | 10 to 50 | 100 to 1000
O=C1CCC(N2Cc3ccc(CNC(=O)OCc4cccc(-c5cccnc5)c4)cc3C2=O)C(=O)N1 (stereo not shown) [Compound 15, 3-(pyridin-3-yl)benzyl ((2-(2,6-dioxopiperidin-3-yl)-3-oxoisoindolin-5-yl)methyl)carbamate] | 10 to 50 | ≤ 100
O=C1CCC(N2Cc3ccc(CNC(=O)OCc4ccc(CC(F)(F)F)cc4)cc3C2=O)C(=O)N1 (stereo not shown) [Compound 42, [4-(2,2,2-trifluoroethyl)phenyl]methyl N-{[2-(2,6-dioxopiperidin-3-yl)-3-oxo-2,3-dihydro-1H-isoindol-5-yl]methyl}carbamate] | 10 to 50 | ≤ 100

Continued, values first:

Dmax [1] [%] | Ki [2] [nM] | SMILES
10 to 50 | ≤ 100 | CC(C)c1ccc(COC(=O)NCc2ccc3c(c2)C(=O)N(C2CCC(=O)NC2=O)C3)cc1 (stereo not shown) [Compound 60, [4-(propan-2-yl)phenyl]methyl N-{[2-(2,6-dioxopiperidin-3-yl)-3-oxo-2,3-dihydro-1H-isoindol-5-yl]methyl}carbamate]
10 to 50 | 100 to 1000 | O=C1CCC(N2Cc3ccc(CCNC(=O)OCc4ccc(OC5CCOCC5)nc4)cc3C2=O)C(=O)N1 (stereo not shown) [Compound 1, (6-((tetrahydro-2H-pyran-4-yl)oxy)pyridin-3-yl)methyl (2-(2-(2,6-dioxopiperidin-3-yl)-3-oxoisoindolin-5-yl)ethyl)carbamate]
10 to 50 | 100 to 1000 | O=C1CCC(N2Cc3ccc(CNC(=O)OCc4ccc(C5CCCO5)cc4)cc3C2=O)C(=O)N1 (stereo not shown) [Compound 18]
50 to 80 | ≤ 100 | Cc1c(COC(=O)NCc2ccc3c(c2)C(=O)N(C2CCC(=O)NC2=O)C3)cccc1-c1ccccc1 (stereo not shown) [Compound 12, (2-methyl-[1,1′-biphenyl]-3-yl)methyl ((2-(2,6-dioxopiperidin-3-yl)-3-oxoisoindolin-5-yl)methyl)carbamate]
10 to 50 | ≤ 100 | CSc1ccc(COC(=O)NCc2ccc3c(c2)C(=O)N(C2CCC(=O)NC2=O)C3)cc1Cl (stereo not shown) [Compound 49, [3-chloro-4-(methylsulfanyl)phenyl]methyl N-{[2-(2,6-dioxopiperidin-3-yl)-3-oxo-2,3-dihydro-1H-isoindol-5-yl]methyl}carbamate]
50 to 80 | 100 to 1000 | O=C1CCC(N2Cc3ccc(CNC(=O)OCc4cccc(-c5cccc(C(F)(F)F)c5)c4)cc3C2=O)C(=O)N1 (stereo not shown) [Compound 11, (3′-(trifluoromethyl)-[1,1′-biphenyl]-3-yl)methyl ((2-(2,6-dioxopiperidin-3-yl)-3-oxoisoindolin-5-yl)methyl)carbamate]
10 to 50 | ≤ 100 | COc1ccc(-c2cccc(COC(=O)NCc3ccc4c(c3)C(=O)N(C3CCC(=O)NC3=O)C4)c2)cc1 (stereo not shown) [Compound 58, {4′-methoxy-[1,1′-biphenyl]-3-yl}methyl N-{[2-(2,6-dioxopiperidin-3-yl)-3-oxo-2,3-dihydro-1H-isoindol-5-yl]methyl}carbamate]
10 to 50 | 100 to 1000 | Cc1ccc(-c2cccc(COC(=O)NCc3ccc4c(c3)C(=O)N(C3CCC(=O)NC3=O)C4)c2)cc1 (stereo not shown) [Compound 7, (4′-methyl-[1,1′-biphenyl]-3-yl)methyl ((2-(2,6-dioxopiperidin-3-yl)-3-oxoisoindolin-5-yl)methyl)carbamate]
